{"source": "patent US20080300298A1", "about": "“Honokiol Derivates For the Treatment of Proliferative Disorders” (priority 2005, published 2008)", "type_in_all_cases": "cell-based", "key": {"[1]": {"system": "phospholipase D in SVR cells", "test": "phospholipase D activity", "conditions": "0.5% and 10% serum", "source_text": "Honokiol analogs can stimulate tumor and endothelial cell apoptosis through inhibition of PLD activity. […] Treatment with […] causes downregulation of S6kinase phosphorylation in a time and dose dependent fashion, as well as downregulation of akt. Thus, honokiol mimics several of the activities of wild type tuberin."}, "[2]": {"system": "microvascular endothelial cells", "test": "endothelial proliferation with TRAIL antibody", "conditions": "0, 1, 6 or 9 μg/ml, 48 h", "experimental": "10^4/well microvascular endothelial cells were cultured in 24-well plates for 24 h. The next day, cells were washed by PBS and pretreated with 0.5 ml/well fresh MEC medium with 0, 1, 6, or 9 μg/ml honokiol for 30 min before addition of TRAIL or isotype control antibody (30 μg/well). Cells were incubated for 48 h after the addition of reagents and were counted with a Coulter Counter. The green bars represent endothelial cells treated with honokiol alone, the dark blue bars represent cells treated with honokiol and TRAIL antibody, and the light blue bars represent cells treated with honokiol and isotype control antibody. The differences in honokiol-treated endothelium in the presence or absence of TRAIL antibody are significant (p<0.05)."}, "[3]": {"system": "apoptosis-related proteins in MCF-7 cells", "test": "Western blot of apoptosis-related proteins", "conditions": "24 h", "experimental": "Following treatment, the cells were harvested and stained for PI and annexin V, as described in Example 9. (B) is a bar graph in which the results of three independent experiments (HNK 60 μM, 24 h) are shown. Asterix indicates p<0.05. (C) is a series of photographs of the Western blots in which MCF-7 cells were treated with HNK (20 or 40 μM, 24 h), lysed and analyzed by Western blotting for the expression of apoptosis-related proteins.\nWestern blot analysis: Cells were harvested and lysed for total protein extraction in a buffer containing 50 mM Tris-Cl pH 7.4, 150 mM NaCl and 2% NP-40 together with a protease inhibitor cocktail (Comp). […] Immunoactivity was detected with horseradish peroxidase-conjugated secondary antibody and visualized by Enhanced Chemiluminescence (Pierce, Rockford, Ill.). Quantification of the results was performed using AlphaImager 2000 (Alpha Innotech, San Leandro, Calif.).\nHNK induces apoptosis in breast cancer cell lines. […] MCF-7 cells were treated with HNK (60 μM for six or 24 hours) and apoptosis and cell death were assessed using annexin V and PI staining (FIG. 5 A). […] Upregulation of BAX was also noticed, (85% increase at 40 μM compared to control, as analyzed by densitometry) but no significant changes in BCL-2 or BAD levels were observed. […]"}, "[4]": {"system": "SHSY5Y and SHEP neuroblastoma cells", "test": "cancer cell viability, TSA in combination with honokiol", "conditions": "0-1 uM TSA alone or in combination with honokiol", "source_text": "In FIG. 43, the effects on cancer cell viability after treatment with trichostatin A (TSA), a histone deacetylase inhibitor, in combination with honokiol were examined."}}, "data": [{"smiles": "C=CCc1ccc(O)c(-c2ccc(O)c(CC=C)c2)c1", "note": "[HNK, Honokiol]", "values": [{"measurement": "activity of phospholipase D", "setting": "[1]", "result": "inhibits the activity of phospholipase D in both 0.5% and 10% serum"}, {"measurement": "inhibition of endothelial proliferation with or without TRAIL antibody", "setting": "[2]", "result": "TRAIL-dependent"}, {"measurement": "Upregulation of BAX (densitometry), increase compared to control", "setting": "[3]; MCF-7, 40 μM", "result": 85, "unit": "%"}, {"measurement": "PARP and caspase 8 levels", "setting": "[3]; MCF-7, 20 or 40 μM", "result": "degradation of poly (ADP-ribose) polymerase (PARP) and decreased levels of caspase 8"}, {"measurement": "percent of viable cells, combination with TSA compared with TSA alone", "setting": "[4]", "result": "significant decrease in the percent of viable cells"}]}]}
